{"source": "patent US20260285850A1", "about": "“SUBSTITUTED OXAZOLIDINONES AND IMIDAZOLINONES AS HERBICIDES” (FMC CORPORATION, priority 2023, published 2026)", "type_in_all_cases": "in vivo", "key": {"[1]": {"tested_on": "ryegrass, Italian (italian ryegrass, Lolium multiflorum)", "assay": "Test A postemergence application, visual injury rating 0-100", "summary_of_the_method": "(§1)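 Grow plants in loam soil blended with sand. Apply formulated compound (non-phytotoxic solvent, surfactant) as a directed soil spray before emergence, or to plants at the one- to two-leaf stage after emergence. Hold in greenhouse 10 days, then rate injury visually versus untreated controls on a 0-100 scale.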"}, "[2]": {"tested_on": "oat, wild (wild oat, Avena fatua)", "assay": "Test A postemergence application, visual injury rating 0-100", "summary_of_the_method": "as §1"}, "[3]": {"tested_on": "horseweed (Erigeron canadensis)", "assay": "Test A postemergence application, visual injury rating 0-100", "summary_of_the_method": "as §1"}, "[4]": {"tested_on": "palmer (palmer amaranth, palmer pigweed, Amaranthus palmeri)", "assay": "Test A postemergence application, visual injury rating 0-100", "summary_of_the_method": "as §1"}, "kochia (Bassia scoparia) [5]": {"tested_on": "kochia (Bassia scoparia)", "assay": "Test A postemergence application, visual injury rating 0-100", "summary_of_the_method": "as §1"}, "soybean (Glycine max) [6]": {"tested_on": "soybean (Glycine max)", "assay": "Test A postemergence application, visual injury rating 0-100", "summary_of_the_method": "as §1"}, "[7]": {"tested_on": "galium (catchweed bedstraw, Galium aparine)", "assay": "Test A postemergence application, visual injury rating 0-100", "summary_of_the_method": "as §1"}, "[8]": {"tested_on": "green foxtail (Setaria viridis)", "assay": "Test A postemergence application, visual injury rating 0-100", "summary_of_the_method": "as §1"}, "[9]": {"tested_on": "barnyardgrass (Echinochloa crus-galli)", "assay": "Test A postemergence application, visual injury rating 0-100", "summary_of_the_method": "as §1"}, "[10]": {"tested_on": "wheat (Triticum aestivum)", "assay": "Test A postemergence application, visual injury rating 0-100", "summary_of_the_method": "as §1"}, "[11]": {"tested_on": "ragweed (common ragweed, Ambrosia artemisiifolia)", "assay": "Test A postemergence application, visual injury rating 0-100", "summary_of_the_method": "as §1"}, "[12]": {"tested_on": "blackgrass (Alopecurus myosuroides)", "assay": "Test A postemergence application, visual injury rating 0-100", "summary_of_the_method": "as §1"}, "corn (Zea mays) [13]": {"tested_on": "corn (Zea mays)", "assay": "Test A postemergence application, visual injury rating 0-100", "summary_of_the_method": "as §1"}, "rice (Oryza sativa)": {"tested_on": "rice (Oryza sativa)", "assay": "Test B flooded paddy test, visual plant response rating 0-100", "details": "250 g ai/ha, Flood, applied to paddy water, evaluated after 13 days", "summary_of_the_method": "(§2)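 Treatment occurs at the 2-leaf stage by adding compound to floodwater standing 3 cm above the soil, a level kept for the whole test. Plants stay in the greenhouse 13 days before visual comparison with controls.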"}, "[14]": {"tested_on": "barnyardgrass (Echinochloa crusgalli)", "assay": "Test B flooded paddy test, visual plant response rating 0-100", "details": "250 g ai/ha, Flood, applied to paddy water, evaluated after 13 days", "summary_of_the_method": "as §2"}, "[15]": {"tested_on": "ducksalad (Heteranthera limosa)", "assay": "Test B flooded paddy test, visual plant response rating 0-100", "details": "250 g ai/ha, Flood, applied to paddy water, evaluated after 13 days", "summary_of_the_method": "as §2"}, "[16]": {"tested_on": "sedge, umbrella (small-flower umbrella sedge, Cyperus difformis)", "assay": "Test B flooded paddy test, visual plant response rating 0-100", "details": "250 g ai/ha, Flood, applied to paddy water, evaluated after 13 days", "summary_of_the_method": "as §2"}, "[17]": {"tested_on": "ryegrass, Italian (italian ryegrass, Lolium multiflorum)", "assay": "Test A preemergence soil spray, visual injury rating 0-100", "details": "10 days", "summary_of_the_method": "as §1"}, "[18]": {"tested_on": "oat, wild (wild oat, Avena fatua)", "assay": "Test A preemergence soil spray, visual injury rating 0-100", "details": "10 days", "summary_of_the_method": "as §1"}, "[19]": {"tested_on": "palmer (palmer amaranth, palmer pigweed, Amaranthus palmeri)", "assay": "Test A preemergence soil spray, visual injury rating 0-100", "details": "10 days", "summary_of_the_method": "as §1"}, "kochia (Bassia scoparia) [20]": {"tested_on": "kochia (Bassia scoparia)", "assay": "Test A preemergence soil spray, visual injury rating 0-100", "details": "10 days", "summary_of_the_method": "as §1"}, "soybean (Glycine max) [21]": {"tested_on": "soybean (Glycine max)", "assay": "Test A preemergence soil spray, visual injury rating 0-100", "details": "10 days", "summary_of_the_method": "as §1"}, "[22]": {"tested_on": "green foxtail (Setaria viridis)", "assay": "Test A preemergence soil spray, visual injury rating 0-100", "details": "10 days", "summary_of_the_method": "as §1"}, "[23]": {"tested_on": "barnyardgrass (Echinochloa crus-galli)", "assay": "Test A preemergence soil spray, visual injury rating 0-100", "details": "10 days", "summary_of_the_method": "as §1"}, "[24]": {"tested_on": "wheat (Triticum aestivum)", "assay": "Test A preemergence soil spray, visual injury rating 0-100", "details": "10 days", "summary_of_the_method": "as §1"}, "[25]": {"tested_on": "ragweed (common ragweed, Ambrosia artemisiifolia)", "assay": "Test A preemergence soil spray, visual injury rating 0-100", "details": "10 days", "summary_of_the_method": "as §1"}, "[26]": {"tested_on": "blackgrass (Alopecurus myosuroides)", "assay": "Test A preemergence soil spray, visual injury rating 0-100", "details": "10 days", "summary_of_the_method": "as §1"}, "corn (Zea mays) [27]": {"tested_on": "corn (Zea mays)", "assay": "Test A preemergence soil spray, visual injury rating 0-100", "details": "10 days", "summary_of_the_method": "as §1"}, "[28]": {"details": "62 g ai/ha, postemergence, 10 days, 0 = no effect, 100 = complete control"}, "[29]": {"details": "Postemergence, 16 g ai/ha, greenhouse 10 days, 0 no effect, 100 complete control"}, "[30]": {"details": "62 g ai/ha, 0 = no effect, 100 = complete control"}}}
{"smiles": "CC1(C(=O)NC2C=CC(C(=O)O)C2)CN(c2cc(F)cc(F)c2)C(=O)O1", "note": "(stereo not shown) [Compound 138]", "values": [{"measurement": "Ryegrass, Italian plant response rating (0-100)", "setting": "[1]; [28]", "value": 90}, {"measurement": "Ryegrass, Italian plant response rating (0 to 100 scale)", "setting": "[1]; [29]", "value": 60}, {"measurement": "Oat, Wild plant response rating (0-100)", "setting": "[2]; [28]", "value": 90}, {"measurement": "Oat, Wild plant response rating (0 to 100 scale)", "setting": "[2]; [29]", "value": 90}, {"measurement": "Horseweed plant response rating (0-100)", "setting": "[3]; [28]", "value": 80}, {"measurement": "Horseweed plant response rating (0 to 100 scale)", "setting": "[3]; [29]", "value": 50}, {"measurement": "Pigweed, Palmer plant response rating (0-100)", "setting": "[4]; [28]", "value": 90}, {"measurement": "Pigweed, Palmer plant response rating (0 to 100 scale)", "setting": "[4]; [29]", "value": 90}, {"measurement": "Kochia plant response rating (0-100)", "setting": "kochia (Bassia scoparia) [5]; [28]", "value": 80}, {"measurement": "Kochia plant response rating (0 to 100 scale)", "setting": "kochia (Bassia scoparia) [5]; [29]", "value": 80}, {"measurement": "Soybean plant response rating (0-100)", "setting": "soybean (Glycine max) [6]; [28]", "value": 60}, {"measurement": "Soybean plant response rating (0 to 100 scale)", "setting": "soybean (Glycine max) [6]; [29]", "value": 60}, {"measurement": "Galium plant response rating (0-100)", "setting": "[7]; [28]", "value": 90}, {"measurement": "Galium plant response rating (0 to 100 scale)", "setting": "[7]; [29]", "value": 90}, {"measurement": "Foxtail, Green plant response rating (0-100)", "setting": "[8]; [28]", "value": 90}, {"measurement": "Foxtail, Green plant response rating (0 to 100 scale)", "setting": "[8]; [29]", "value": 80}, {"measurement": "Barnyardgrass plant response rating (0-100)", "setting": "[9]; [28]", "value": 80}, {"measurement": "Barnyardgrass plant response rating (0 to 100 scale)", "setting": "[9]; [29]", "value": 70}, {"measurement": "Wheat plant response rating (0-100)", "setting": "[10]; [28]", "value": 90}, {"measurement": "Wheat plant response rating (0 to 100 scale)", "setting": "[10]; [29]", "value": 90}, {"measurement": "Ragweed plant response rating (0-100)", "setting": "[11]; [28]", "value": 80}, {"measurement": "Ragweed plant response rating (0 to 100 scale)", "setting": "[11]; [29]", "value": 60}, {"measurement": "Blackgrass plant response rating (0-100)", "setting": "[12]; [28]", "value": 90}, {"measurement": "Blackgrass plant response rating (0 to 100 scale)", "setting": "[12]; [29]", "value": 70}, {"measurement": "Corn plant response rating (0-100)", "setting": "corn (Zea mays) [13]; [28]", "value": 100}, {"measurement": "Corn plant response rating (0 to 100 scale)", "setting": "corn (Zea mays) [13]; [29]", "value": 100}, {"measurement": "Plant response rating, Rice (0 to 100 scale, 0 is no effect and 100 is complete control)", "setting": "rice (Oryza sativa)", "value": 95}, {"measurement": "Plant response rating, Barnyardgrass (0 to 100 scale, 0 is no effect and 100 is complete control)", "setting": "[14]", "value": 95}, {"measurement": "Plant response rating, Ducksalad (0 to 100 scale, 0 is no effect and 100 is complete control)", "setting": "[15]", "value": 100}, {"measurement": "Plant response rating, Sedge, Umbrella (0 to 100 scale, 0 is no effect and 100 is complete control)", "setting": "[16]", "value": 95}, {"measurement": "Ryegrass, Italian plant response rating", "setting": "[17]; 16 g ai/ha, 0 to 100 scale", "value": 70}, {"measurement": "Ryegrass, Italian plant response rating (0-100)", "setting": "[17]; [30]", "value": 90}, {"measurement": "Oat, Wild plant response rating", "setting": "[18]; 16 g ai/ha, 0 to 100 scale", "value": 50}, {"measurement": "Oat, Wild plant response rating (0-100)", "setting": "[18]; [30]", "value": 90}, {"measurement": "Pigweed, Palmer plant response rating", "setting": "[19]; 16 g ai/ha, 0 to 100 scale", "value": 30}, {"measurement": "Pigweed, Palmer plant response rating (0-100)", "setting": "[19]; [30]", "value": 90}, {"measurement": "Kochia plant response rating", "setting": "kochia (Bassia scoparia) [20]; 16 g ai/ha, 0 to 100 scale", "value": 90}, {"measurement": "Kochia plant response rating (0-100)", "setting": "kochia (Bassia scoparia) [20]; [30]", "value": 90}, {"measurement": "Soybean plant response rating", "setting": "soybean (Glycine max) [21]; 16 g ai/ha, 0 to 100 scale", "value": 30}, {"measurement": "Soybean plant response rating (0-100)", "setting": "soybean (Glycine max) [21]; [30]", "value": 80}, {"measurement": "Foxtail, Green plant response rating", "setting": "[22]; 16 g ai/ha, 0 to 100 scale", "value": 20}, {"measurement": "Foxtail, Green plant response rating (0-100)", "setting": "[22]; [30]", "value": 90}, {"measurement": "Barnyardgrass plant response rating", "setting": "[23]; 16 g ai/ha, 0 to 100 scale", "value": 60}, {"measurement": "Barnyardgrass plant response rating (0-100)", "setting": "[23]; [30]", "value": 100}, {"measurement": "Wheat plant response rating", "setting": "[24]; 16 g ai/ha, 0 to 100 scale", "value": 50}, {"measurement": "Wheat plant response rating (0-100)", "setting": "[24]; [30]", "value": 90}, {"measurement": "Ragweed plant response rating", "setting": "[25]; 16 g ai/ha, 0 to 100 scale", "value": 0}, {"measurement": "Ragweed plant response rating (0-100)", "setting": "[25]; [30]", "value": 40}, {"measurement": "Blackgrass plant response rating", "setting": "[26]; 16 g ai/ha, 0 to 100 scale", "value": 40}, {"measurement": "Blackgrass plant response rating (0-100)", "setting": "[26]; [30]", "value": 70}, {"measurement": "Corn plant response rating", "setting": "corn (Zea mays) [27]; 16 g ai/ha, 0 to 100 scale", "value": 60}, {"measurement": "Corn plant response rating (0-100)", "setting": "corn (Zea mays) [27]; [30]", "value": 90}]}
